The results in this text go back to patent US20220281821A1, “INDAZOLE COMPOUNDS AND THEIR PHARMACEUTICAL COMPOSITIONS” (Jinan University, priority 2019, published 2022).

Type in all cases: cell-based, mouse
One test has as its target T1, BaF3-CD74-NTRK1 (Homo sapiens, UniProt P04629).
T1 construct: fused on or other part: P04233 (HLA class II histocompatibility antigen gamma chain)
As to the kind of experiment: Cell proliferation inhibition (CCK-8), BaF3-CD74-NTRK1 stable strain. As to conditions: BaF3-CD74-NTRK1, 72 hours. Here is the method:
(§1) The brief steps of stable strain construction are as follows: construct a pCDNA3.1(+) plasmid vector carrying genes such as CD74-NTRK1, ETV6-NTRK2 and ETV6-NTRK3; the plasmid was electroporated into Ba/F3 cells using the Amaxa® Cell Line Nucleofector® Kit V; 48 hours after electroporated, G418 with a final concentration of 1000 μg/ml was added for screening for two weeks, and then IL3 was removed, and continued screening to obtain polyclonal stable strains; then single clones were selected by a limiting dilution method. The stable strains were then identified using positive drugs, WB and gene sequencing; and the monoclonal clones that were identified as completely correct may be used for the study of cell proliferation inhibitory activity of inhibitors.
(§2) Cell proliferation inhibition activity study: the cells in the logarithmic growth phase were seeded into 96-well plates at 8000-12000 cells/well, and inhibitors at different concentrations (0-10 μM) were added the next day, and incubation was continued for 72 hours; then 10 μL of CCK-8 reagent was added to each well, and the incubation was continued for 1-3 hours; and then use a super microplate reader to measure their absorbance values at 450 nm and 650 nm. The half-inhibition concentration (IC50) was calculated using GraphPad Prism 8.0.0.

The target of the next test is T2, BaF3-ETV6-NTRK2 (Homo sapiens, UniProt Q16620).
T2 construct: fused on or other part: P41212 (Transcription factor ETV6)
Description: Cell proliferation inhibition (CCK-8), BaF3-ETV6-NTRK2 stable strain. Conditions: BaF3-ETV6-NTRK2, 72 hours. Here is the method: as §1, §2

A further test concerns the target T3, BaF3-ETV6-NTRK3 (Homo sapiens, UniProt Q16288).
T3 construct: fused on or other part: P41212 (Transcription factor ETV6)
As to the kind of experiment: Cell proliferation inhibition (CCK-8), BaF3-ETV6-NTRK3 stable strain. As to conditions: BaF3-ETV6-NTRK3, 72 hours. As for the experimental part:
as §1, §2

T2 sequence (Q16620 538-822 limits assumed): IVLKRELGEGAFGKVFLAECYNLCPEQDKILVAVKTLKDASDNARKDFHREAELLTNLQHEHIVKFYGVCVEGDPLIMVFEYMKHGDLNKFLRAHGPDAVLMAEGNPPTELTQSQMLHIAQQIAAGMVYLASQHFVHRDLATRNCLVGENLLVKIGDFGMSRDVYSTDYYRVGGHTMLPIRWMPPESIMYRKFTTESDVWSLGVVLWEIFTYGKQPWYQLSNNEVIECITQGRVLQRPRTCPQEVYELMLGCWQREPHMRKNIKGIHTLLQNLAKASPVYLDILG
T1 sequence (P04629 510-796 limits assumed): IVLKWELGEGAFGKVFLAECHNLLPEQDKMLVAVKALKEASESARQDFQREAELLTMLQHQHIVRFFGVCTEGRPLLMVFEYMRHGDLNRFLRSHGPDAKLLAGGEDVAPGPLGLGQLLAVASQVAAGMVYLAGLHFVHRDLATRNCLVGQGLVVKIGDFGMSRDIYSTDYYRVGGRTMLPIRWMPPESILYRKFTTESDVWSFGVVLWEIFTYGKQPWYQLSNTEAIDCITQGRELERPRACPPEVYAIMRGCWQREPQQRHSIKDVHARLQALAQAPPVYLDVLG
T3 sequence (Q16288 whole entry, the tested form may be a part): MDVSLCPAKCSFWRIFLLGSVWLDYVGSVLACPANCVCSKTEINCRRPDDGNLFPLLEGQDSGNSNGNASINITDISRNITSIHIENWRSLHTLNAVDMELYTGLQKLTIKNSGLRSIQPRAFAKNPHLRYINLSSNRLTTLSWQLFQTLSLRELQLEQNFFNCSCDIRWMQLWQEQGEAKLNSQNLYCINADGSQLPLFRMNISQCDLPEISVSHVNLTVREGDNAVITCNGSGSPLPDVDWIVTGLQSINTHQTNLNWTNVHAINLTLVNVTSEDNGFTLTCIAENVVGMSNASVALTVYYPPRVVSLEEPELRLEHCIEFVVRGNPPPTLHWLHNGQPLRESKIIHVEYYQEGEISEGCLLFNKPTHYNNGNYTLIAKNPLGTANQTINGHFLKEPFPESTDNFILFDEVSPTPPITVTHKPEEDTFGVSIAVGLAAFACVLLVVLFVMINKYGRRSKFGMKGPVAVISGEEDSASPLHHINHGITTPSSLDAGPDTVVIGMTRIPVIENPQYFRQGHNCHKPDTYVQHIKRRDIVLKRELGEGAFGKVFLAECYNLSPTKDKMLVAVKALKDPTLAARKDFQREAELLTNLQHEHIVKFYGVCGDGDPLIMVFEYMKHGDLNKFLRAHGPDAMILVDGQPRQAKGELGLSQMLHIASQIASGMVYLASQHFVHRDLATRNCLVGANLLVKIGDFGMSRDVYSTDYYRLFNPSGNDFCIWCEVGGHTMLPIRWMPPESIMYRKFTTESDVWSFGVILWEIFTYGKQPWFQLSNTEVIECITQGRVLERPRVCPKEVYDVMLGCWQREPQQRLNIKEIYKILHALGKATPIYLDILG

For `N#CCn1cc(/C=C/c2n[nH]c3ccc(NS(=O)(=O)c4cc(F)cc(F)c4)cc23)cn1` [CHW-1, (E)-N-(3-(2-(1-(cyanomethyl)-1H-pyrazol-4-yl)vinyl)-1H-indazol-5-yl)-3,5-difluorobenzene sulfonamide], the IC50 was 35.5 nM against BaF3-CD74-NTRK1, 43.1 nM at BaF3-ETV6-NTRK2 and 39.2 nM against BaF3-ETV6-NTRK3.

Turning to `CC(=O)n1cc(/C=C/c2n[nH]c3ccc(NS(=O)(=O)c4cc(F)cc(F)c4)cc23)cn1` [CHW-2, (E)-N-(3-(2-(1-acetyl-1H-pyrazol-4-yl)vinyl)-1H-indazol-5-yl)-3,5-difluorobenzenesulfonamide], the IC50 stood at 107 nM against BaF3-CD74-NTRK1, 185 nM against BaF3-ETV6-NTRK2 and 127 nM against BaF3-ETV6-NTRK3.

On to `O=S(=O)(Nc1ccc2[nH]nc(/C=C/c3cnn(CC(F)(F)F)c3)c2c1)c1cc(F)cc(F)c1` [CHW-3], for which the IC50 was 92 nM at BaF3-CD74-NTRK1, 165 nM against BaF3-ETV6-NTRK2 and 123 nM against BaF3-ETV6-NTRK3.

For `O=S(=O)(Nc1ccc2[nH]nc(/C=C/c3cnn(C4CC4)c3)c2c1)c1cc(F)cc(F)c1` [CHW-4], the half-maximal inhibitory concentration (IC50) against BaF3-CD74-NTRK1 worked out at 3.1 nM; against BaF3-ETV6-NTRK2, 8.2 nM; against BaF3-ETV6-NTRK3, 7 nM.

`O=S(=O)(Nc1ccc2[nH]nc(/C=C/c3ccccn3)c2c1)c1cccc(F)c1` [CHW-5, (E)-3-fluoro-N-(3-(2-(pyridin-2-yl)vinyl)-1H-indazol-5-yl)benzene sulfonamide]: the IC50 against BaF3-CD74-NTRK1 was found to be 27.3 nM; on BaF3-ETV6-NTRK2 it was 70.1 nM; at BaF3-ETV6-NTRK3, 59.5 nM.

For the molecule `O=S(=O)(Nc1ccc2[nH]nc(/C=C/c3cnn(CC(F)F)c3)c2c1)c1cc(F)cc(F)c1` [CHW-6], the IC50 against BaF3-CD74-NTRK1 was 23 nM; against BaF3-ETV6-NTRK2, 60.1 nM; against BaF3-ETV6-NTRK3 it was 53.5 nM.

Turning to `CC(C)n1cc(/C=C/c2n[nH]c3ccc(NS(=O)(=O)c4cc(F)cc(F)c4)cc23)cn1` [CHW-7, (E)-3,5-difluoro-N-(3-(2-(1-isopropyl-1H-pyrazol-4-yl)vinyl)-1H-indazol-5-yl)benzenesulfonamide], the IC50 was 33.4 nM on BaF3-CD74-NTRK1, 57.8 nM at BaF3-ETV6-NTRK2 and 40.9 nM on BaF3-ETV6-NTRK3.

Take `O=S(=O)(Nc1ccc2[nH]nc(/C=C/c3cccnc3)c2c1)c1cc(F)cc(F)c1` [CHW-8, (E)-3,5-difluoro-N-(3-(2-(pyridin-3-yl)vinyl)-1H-indazol-5-yl)benzenesulfonamide]: the IC50 was 143 nM against BaF3-CD74-NTRK1, 248 nM on BaF3-ETV6-NTRK2 and 174 nM at BaF3-ETV6-NTRK3.

Take `O=S(=O)(Nc1ccc2[nH]nc(/C=C/c3ccccn3)c2c1)c1cncc(F)c1` [CHW-9, (E)-5-fluoro-N-(3-(2-(pyridin-2-yl)vinyl)-1H-indazol-5-yl)pyridine-3-sulfonamide]: the IC50 against BaF3-CD74-NTRK1 worked out at 60.8 nM; at BaF3-ETV6-NTRK2 it was 134 nM; against BaF3-ETV6-NTRK3, 121 nM.

As for `CN(C)C(=O)Cn1cc(/C=C/c2n[nH]c3ccc(NS(=O)(=O)c4cc(F)cc(F)c4)cc23)cn1` [CHW-10, (E)-2-(4-(2-(5-((3,5-difluorophenyl)sulfonamido)-1H-indazol-3-yl)vinyl)-1H-pyrazol-1-yl)-N,N-dimethylacetamide], the IC50 at BaF3-CD74-NTRK1 stood at 274 nM; at BaF3-ETV6-NTRK2, 439 nM; against BaF3-ETV6-NTRK3, 390 nM.

`O=S(=O)(Nc1ccc2[nH]nc(/C=C/c3cnn(C(F)F)c3)c2c1)c1cc(F)cc(F)c1` [CHW-11]: the values for the IC50 on BaF3-CD74-NTRK1, against BaF3-ETV6-NTRK2 and against BaF3-ETV6-NTRK3 were 53.8 nM, 103 nM and 111 nM, respectively.

On to `CC(C)OCCn1cc(/C=C/c2n[nH]c3ccc(NS(=O)(=O)c4cc(F)cc(F)c4)cc23)cn1` [CHW-12], for which the IC50 was 33.8 nM at BaF3-CD74-NTRK1, 55.8 nM against BaF3-ETV6-NTRK2 and 48.1 nM against BaF3-ETV6-NTRK3.

With `COCCn1cc(/C=C/c2n[nH]c3ccc(NS(=O)(=O)c4cc(F)cc(F)c4)cc23)cn1` [CHW-13], the IC50 was 40.2 nM against BaF3-CD74-NTRK1, 52.3 nM against BaF3-ETV6-NTRK2 and 41.3 nM against BaF3-ETV6-NTRK3.

Turning to `CNC(=O)Cn1cc(/C=C/c2n[nH]c3ccc(NS(=O)(=O)c4cc(F)cc(F)c4)cc23)cn1` [CHW-14, (E)-2-(4-(2-(5-((3,5-difluorophenyl)sulfonamido)-1H-indazol-3-yl)vinyl)-1H-pyrazol-1-yl)-N-methylacetamide], the half-maximal inhibitory concentration (IC50) stood at 331 nM against BaF3-CD74-NTRK1, 427 nM against BaF3-ETV6-NTRK2 and 350 nM against BaF3-ETV6-NTRK3.

As to `N#Cc1cccc(Cc2ccc3[nH]nc(C#Cc4ccccn4)c3c2)c1` [DYX-136Q, 3-((3-(pyridin-2-ylethynyl)-1H-indazol-5-yl)methyl)benzonitrile], the IC50 against BaF3-CD74-NTRK1 came to 4600 nM; against BaF3-ETV6-NTRK2, 3100 nM; at BaF3-ETV6-NTRK3, 2090 nM.

Consider `FC(F)(F)c1cccc(Cc2ccc3[nH]nc(C#Cc4ccccn4)c3c2)c1` [DYX-138Q], for which the IC50 at BaF3-CD74-NTRK1, against BaF3-ETV6-NTRK2 and against BaF3-ETV6-NTRK3 was greater than 10000 nM each time.

Consider `CN(C)C(=O)/C=C/c1n[nH]c2ccc(NCc3cc(F)cc(F)c3)cc12` [DYX-220, (E)-3-(5-((3,5-difluorobenzyl)amino)-1H-indazol-3-yl)-N,N-dimethylacrylamide], for which the results for the IC50 on BaF3-CD74-NTRK1, against BaF3-ETV6-NTRK2 and on BaF3-ETV6-NTRK3 were 21.2 nM, 31.7 nM and 22.6 nM, respectively.

Turning to `O=C(/C=C/c1n[nH]c2ccc(NCc3cc(F)cc(F)c3)cc12)N1CCOCC1` [DYX-222, (E)-3-(5-((3,5-difluorobenzyl)amino)-1H-indazol-3-yl)-1-morpholinoprop-2-en-1-one], the IC50 against BaF3-CD74-NTRK1 was 37.3 nM; against BaF3-ETV6-NTRK2, 54.7 nM; on BaF3-ETV6-NTRK3 it was 41.5 nM.

With `NC(=O)/C=C/c1n[nH]c2ccc(NCc3cc(F)cc(F)c3)cc12` [DYX-223, (E)-3-(5-((3,5-difluorobenzyl)amino)-1H-indazol-3-yl)acrylamide], the IC50 against BaF3-CD74-NTRK1 turned out to be 37.7 nM; against BaF3-ETV6-NTRK2 it was 24.3 nM; against BaF3-ETV6-NTRK3, 35.6 nM.

For the molecule `CN1CCN(C(=O)/C=C/c2n[nH]c3ccc(NCc4cc(F)cc(F)c4)cc23)CC1` [DYX-226, (E)-3-(5-((3,5-difluorobenzyl)amino)-1H-indazol-3-yl)-1-(4-methylpiperazin-1-yl)prop-2-en-1-one], the results for the IC50 against BaF3-CD74-NTRK1, against BaF3-ETV6-NTRK2 and on BaF3-ETV6-NTRK3 were 48.7 nM, 48.1 nM and 34.4 nM, respectively.

For the molecule `O=C(/C=C/c1n[nH]c2ccc(NCc3cc(F)cc(F)c3)cc12)N1CC[C@@H](O)C1` [DYX-227, (R,E)-3-(5-((3,5-difluorobenzyl)amino)-1H-indazol-3-yl)-1-(3-hydroxylpyrrolidin-1-yl)prop-2-en-1-one], the IC50 is 37.5 nM against BaF3-CD74-NTRK1, 56 nM at BaF3-ETV6-NTRK2 and 33.2 nM against BaF3-ETV6-NTRK3.

Consider `O=C(/C=C/c1n[nH]c2ccc(NCc3cc(F)cc(F)c3)cc12)N1CC[C@H](O)C1` [DYX-228, (S,E)-3-(5-((3,5-difluorobenzyl)amino)-1H-indazol-3-yl)-1-(3-hydroxylpyrrolidin-1-yl)prop-2-en-1-one], for which the IC50 turned out to be 11.9 nM at BaF3-CD74-NTRK1, 20.5 nM on BaF3-ETV6-NTRK2 and 11.6 nM on BaF3-ETV6-NTRK3.

Take `CC(C)(C)NC(=O)/C=C/c1n[nH]c2ccc(NCc3cc(F)cc(F)c3)cc12` [DYX-230, (E)-N-tert-butyl-3-(5-((3,5-difluorobenzyl)amino)-1H-indazol-3-yl)acrylamide]: the IC50 on BaF3-CD74-NTRK1 amounted to 682 nM; on BaF3-ETV6-NTRK2, 303 nM; on BaF3-ETV6-NTRK3, 359 nM.

As to `CC(C)NC(=O)/C=C/c1n[nH]c2ccc(NCc3cc(F)cc(F)c3)cc12` [DYX-231, (E)-3-(5-((3,5-difluorobenzyl)amino)-1H-indazol-3-yl)-N-isopropylacrylamide], the IC50 amounted to 619 nM against BaF3-CD74-NTRK1, 780 nM on BaF3-ETV6-NTRK2 and 547 nM against BaF3-ETV6-NTRK3.

`CNC(=O)/C=C/c1n[nH]c2ccc(NCc3cc(F)cc(F)c3)cc12` [DYX-235, (E)-3-(5-((3,5-difluorobenzyl)amino)-1H-indazol-3-yl)-N-methylacrylamide]: the results for the IC50 on BaF3-CD74-NTRK1, against BaF3-ETV6-NTRK2 and against BaF3-ETV6-NTRK3 were 20 nM, 32.6 nM and 34.2 nM, respectively.

As to `CCNC(=O)/C=C/c1n[nH]c2ccc(NCc3cc(F)cc(F)c3)cc12` [DYX-236, (E)-3-(5-((3,5-difluorobenzyl)amino)-1H-indazol-3-yl)-N-ethylacrylamide], the IC50 was 112 nM at BaF3-CD74-NTRK1, 116 nM against BaF3-ETV6-NTRK2 and 196 nM against BaF3-ETV6-NTRK3.

As for `C(=C\c1n[nH]c2ccc(NCc3ccccc3)cc12)/c1ccccn1` [DYX-314, (E)-N-benzyl-3-(2-(pyridin-2-yl)vinyl)-1H-indazol-5-amine], the figures for the IC50 against BaF3-CD74-NTRK1, against BaF3-ETV6-NTRK2 and against BaF3-ETV6-NTRK3 were 154 nM, 165 nM and 149 nM, respectively.

For the molecule `C[C@@H](Nc1ccc2[nH]nc(/C=C/c3ccccn3)c2c1)c1cccc(F)c1` [DYX-320, (R,E)-N-(1-(3-fluorophenyl)ethyl)-3-(2-(pyridin-2-yl)vinyl)-1H-indazol-5-amine], the results for the IC50 at BaF3-CD74-NTRK1, at BaF3-ETV6-NTRK2 and at BaF3-ETV6-NTRK3 were 37.6 nM, 32.4 nM and 10.4 nM, respectively.

Consider `C[C@@H](Nc1ccc2[nH]nc(/C=C/c3cnn(CCO)c3)c2c1)c1cc(F)cc(F)c1` [DYX-327, (R,E)-2-(4-(2-(5-((1-(3,5-difluorophenyl)ethyl)amino)-1H-indazol-3-yl)vinyl)-1H-pyrazol-1-yl)-1-ethanol], for which the IC50 stood at 1.4 nM against BaF3-CD74-NTRK1, 17.6 nM at BaF3-ETV6-NTRK2 and 5.4 nM against BaF3-ETV6-NTRK3.
